Test results reported in US20250213489A1, “OSMOTIC TABLETS OF DEXPRAMIPEXOLE AND METHODS OF MANUFACTURING AND USE THEREOF” (Areteia Therapeutics, Inc., priority 2023, published 2025).
Structures can show the parent of a compound that is named as a salt.

Tests used:
eosinophils = settings: human blood and tissues; cited from earlier work
dopamine receptors = settings: cited from earlier work
[1] = during tablet manufacture and storage
Excerpt: The chiral purity might be determined by analyzing a sample of dexpramipexole, or a pharmaceutically acceptable salt thereof, by high performance liquid chromatography (HPLC).

| Structure (SMILES) | effect on eosinophil counts (eosinophils) | affinity for dopamine receptors compared to pramipexole (dopamine receptors) | chiral purity over time [1] |
| --- | --- | --- | --- |
| CCCN[C@@H]1CCc2nc(N)sc2C1 [dexpramipexole, (6R)-2-amino-4,5,6,7-tetrahydro-6-(propylamino)benzothiazole] | selectively and significantly lower eosinophil counts | greatly reduced |  |
| CCCN[C@@H]1CCc2nc(N)sc2C1 [dexpramipexole dihydrochloride monohydrate] |  |  | did not change over time |
